Values quoted from earlier work in patent US6472222B2, “Method of estimating rate of nicotine metabolism in individuals” (Via Christi Research, Inc., priority 1999, dated 2002).

Structure (SMILES)	half-life (plasma)	half-life (biphasic elimination, second phase) (biphasic elimination, longer of two half-lives)	half-life (biphasic elimination, first, short phase) (biphasic elimination, shorter of two half-lives)
CN1C(=O)CC[C@H]1c1cccnc1 [cotinine]	approximately 19 hours	–	–
CN1CCCC1c1cccnc1 (stereo not drawn) [nicotine]	–	~2 h	approximately 10 minutes
